Patent US11724992B2 (Novartis AG, priority 2017, dated 2023)

tested on: IL-1β production in PMA-differentiated THP-1 cells; experiment: IL-1β production in PMA-differentiated THP-1 cells stimulated with gramicidin (hTHP-1 assay, 2% fetal bovine serum; Procedures 1-3); format: cell-based, human; conditions: hTHP-1 assay containing 2% fetal bovine serum; class symbols; read-out: hTHP-1 IC50 (Average IC50 of compounds in hTHP-1 assay)
Experimental: The following protocol is suitable for testing the activity of the compounds disclosed herein.
Procedure 1: IL-1β Production in PMA-Differentiated THP-1 Cells Stimulated with Gramicidin
THP-1 cells were purchased from the American Type Culture Collection and sub-cultured according to instructions from the supplier. Cells were cultured in complete RPMI 1640 (containing 10% heat inactivated FBS, penicillin (100 units/ml) and streptomycin (100 μg/ml)), and maintained in log phase prior to experimental setup. Prior to the experiment, compounds were dissolved in dimethyl sulfoxide (DMSO) to generate a 30 mM stock. The compound stock was first pre-diluted in DMSO to 3, 0.34, 0.042 and 0.0083 mM intermediate concentrations and subsequently spotted using Echo550 liquid handler into an empty 384-well assay plate to achieve desired final concentration (e.g. 100, 33, 11, 3.7, 1.2, 0.41, 0.14, 0.046, 0.015, 0.0051, 0.0017 μM). DMSO was backfilled in the plate to achieve a final DMSO assay concentration of 0.37%. The plate was then sealed and stored at room temperature until required.
THP-1 cells were treated with PMA (Phorbol 12-myristate 13-acetate) (20 ng/ml) for 16-18 hours. On the day of the experiment the media was removed and adherent cells were detached with trypsin for 5 minutes. Cells were then harvested, washed with complete RPMI 1640, spun down, and resuspended in RPMI 1640 (containing 2% heat inactivated FBS, penicillin (100 units/ml) and streptomycin (100 μg/ml). The cells were plated in the 384-well assay plate containing the spotted compounds at a density of 50,000 cells/well (final assay volume 50 μl). Cells were incubated with compounds for 1 hour and then stimulated with gramicidin (5 μM) (Enzo) for 2 hours. Plates were then centrifuged at 340 g for 5 min. Cell free supernatant (40 μL) was collected using a 96-channel PlateMaster (Gilson) and the production of IL-1β was evaluated by HTRF (cisbio). The plates were incubated for 18 h at 4° C. and read using the preset HTRF program (donor emission at 620 nm, acceptor emission at 668 nm) of the SpectraMax i3x spectrophotometer (Molecular Devices, software SoftMax 6). A vehicle only control and a dose titration of CRID3 (100-0.0017 μM) were run concurrently with each experiment.
Procedure 2: IL-1β Production in PMA-Differentiated THP-1 Cells Stimulated with Gramicidin
THP-1 cells were purchased from the American Type Culture Collection and sub-cultured according to instructions from the supplier. Prior to experiments, cells were cultured in complete RPMI 1640 (containing 10% heat inactivated FBS, penicillin (100 units/ml) and streptomycin (100 μg/ml)), and maintained in log phase prior to experimental setup. Prior to the experiment THP-1 were treated with PMA (Phorbol 12-myristate 13-acetate) (20 ng/ml) for 16-18 hours. Compounds were dissolved in dimethyl sulfoxide (DMSO) to generate a 30 mM stock. On the day of the experiment the media was removed and adherent cells were detached with trypsin for 5 minutes. Cells were then harvested, washed with complete RPMI 1640, spun down, resuspended in RPMI 1640 (containing 2% heat inactivated FBS, penicillin (100 units/ml) and streptomycin (100 μg/ml). The cells were plated in a 384-well plate at a density of 50,000 cells/well (final assay volume 50 μl). Compounds were first dissolved in assay medium to obtain a 5× top concentration of 500 μM. 10 step dilutions (1:3) were then undertaken in assay medium containing 1.67% DMSO. 5× compound solutions were added to the culture medium to achieve desired final concentration (e.g. 100, 33, 11, 3.7, 1.2, 0.41, 0.14, 0.046, 0.015, 0.0051, […]). Final DMSO concentration was at 0.37%. Cells were incubated with compounds for 1 hour and then stimulated with gramicidin (5 μM) (Enzo) for 2 hours. Plates were then centrifuged at 340 g for 5 min. Cell free supernatant (40 μL) was collected using a 96-channel PlateMaster (Gilson) and the production of IL-1β was evaluated by HTRF (cisbio). […]

SMILES | IC50 [nM]
Cc1oc(S(N)(=O)=NC(=O)Nc2c(C(C)C)cc(C#N)c(F)c2C(C)C)cc1C(C)(C)O (single isomer, unassigned) [Example 81] | 8 to 40
Cc1oc(S(N)(=O)=NC(=O)Nc2c(C(C)C)cc(C#N)c(F)c2C(C)C)cc1C(C)(C)O (single isomer, unassigned) [Example 82] | 200 to 1000
CC(C)(O)c1ccc(S(N)(=O)=NC(=O)Nc2c3c(cc4c2CCC4)CCC3)c(F)c1 (single isomer, unassigned) [Example 87] | 40 to 200
CC(C)(O)c1ccc(S(N)(=O)=NC(=O)Nc2c3c(cc4c2CCC4)CCC3)c(F)c1 (single isomer, unassigned) [Example 88] | 1000 to 5000
CC(C)(O)c1csc(S(N)(=O)=NC(=O)Nc2c3c(c(Cl)c4c2CCC4)CCC3)c1 (single isomer, unassigned) [Example 90] | 200 to 1000
CC(C)c1cc(OC(F)F)cc(C(C)C)c1NC(=O)N=S(N)(=O)c1sc(C(C)(C)O)cc1F (single isomer, unassigned) [Example 96] | 200 to 1000
CCc1cc(OC(F)F)cc(C(C)C)c1NC(=O)N=S(N)(=O)c1cnc(C(C)(C)O)s1 (single isomer, unassigned) [Example 97] | 40 to 200
CCc1cc(OC(F)F)cc(C(C)C)c1NC(=O)N=S(N)(=O)c1cnc(C(C)(C)O)s1 (single isomer, unassigned) [Example 98] | 5000 to 30000
Cc1cc(C(C)(C)O)ccc1S(N)(=O)=NC(=O)Nc1c2c(cc3c1CCC3)CCC2 (single isomer, unassigned) [Example 99] | 200 to 1000
CC(C)c1cc(OC(F)F)cc(C2CC2)c1NC(=O)N=S(N)(=O)c1cnc(C(C)(C)O)s1 (single isomer, unassigned) [Example 102] | 1000 to 5000
CC(C)c1cc(F)cc(C(C)C)c1NC(=O)N=S(N)(=O)c1cnc(C(C)(C)O)s1 (single isomer, unassigned) [Example 103] | 40 to 200
CC(C)c1cc(F)cc(C(C)C)c1NC(=O)N=S(N)(=O)c1cnc(C(C)(C)O)s1 (single isomer, unassigned) [Example 104] | 1000 to 5000
CC(C)c1cc(F)cc(C(C)C)c1NC(=O)N=S(N)(=O)c1cccc(C(C)(C)O)c1 (single isomer, unassigned) [Example 105] | 200 to 1000
CC(C)c1cc(OC(F)F)cc(C(C)C)c1NC(=O)N=S(N)(=O)c1cnc(C(C)(C)O)s1 (single isomer, unassigned) [Example 112] | 5000 to 30000
CC(C)(O)c1ncc(S(N)(=O)=NC(=O)Nc2c3c(c(OC(F)F)c4c2CCC4)CCC3)s1 (single isomer, unassigned) [Example 115] | 1000 to 5000
CC(C)(O)c1ncc(S(N)(=O)=NC(=O)Nc2c3c(c(OC(F)F)c4c2CCC4)CCC3)s1 (single isomer, unassigned) [Example 116] | 40 to 200
CN(C)Cc1ccc(S(N)(=O)=NC(=O)Nc2c3c(cc4c2CCC4)CCC3)cc1 (single isomer, unassigned) [Example 118] | 1000 to 5000
CC(C)(O)c1cc(F)c(S(N)(=O)=NC(=O)Nc2c3c(c(F)c4c2CCC4)CCC3)s1 (single isomer, unassigned) [Example 121] | 8 to 40
CC(C)(O)c1cc(F)c(S(N)(=O)=NC(=O)Nc2c3c(c(F)c4c2CCC4)CCC3)s1 (single isomer, unassigned) [Example 122] | 200 to 1000
Cc1oc(S(N)(=O)=NC(=O)Nc2c3c(cc4c2CCC4C)CCC3)cc1C(C)(C)O (single isomer, unassigned) [Example 124] | 1000 to 5000
Cc1oc(S(N)(=O)=NC(=O)Nc2c3c(cc4c2CCC4C)CCC3)cc1C(C)(C)O (single isomer, unassigned) [Example 125] | 40 to 200

Now from value to compound:

IC50 [nM] | SMILES
8 to 40 | Cc1oc(S(N)(=O)=NC(=O)Nc2c(C(C)C)cc(F)cc2C(C)C)cc1C(C)(C)O (single isomer, unassigned) [Example 79]
200 to 1000 | Cc1oc(S(N)(=O)=NC(=O)Nc2c(C(C)C)cc(F)cc2C(C)C)cc1C(C)(C)O (single isomer, unassigned) [Example 80]
8 to 40 | Cc1sc(S(N)(=O)=NC(=O)Nc2c3c(cc4c2CCC4)CCC3)cc1C(C)(C)O (single isomer, unassigned) [Example 85]
200 to 1000 | Cc1sc(S(N)(=O)=NC(=O)Nc2c3c(cc4c2CCC4)CCC3)cc1C(C)(C)O (single isomer, unassigned) [Example 86]
8 to 40 | CC(C)(O)c1csc(S(N)(=O)=NC(=O)Nc2c3c(c(Cl)c4c2CCC4)CCC3)c1 (single isomer, unassigned) [Example 89]
40 to 200 | CC(C)c1cc(C#N)c(F)c(C(C)C)c1NC(=O)N=S(N)(=O)c1cnc(C(C)(C)O)s1 (single isomer, unassigned) [Example 91]
1000 to 5000 | CC(C)c1cc(C#N)c(F)c(C(C)C)c1NC(=O)N=S(N)(=O)c1cnc(C(C)(C)O)s1 (single isomer, unassigned) [Example 92]
1000 to 5000 | CC(C)n1ccc(S(N)(=O)=NC(=O)Nc2c3c(cc4c2CCC4)CCC3)n1 (single isomer, unassigned) [Example 94]
< 8 | CC(C)c1cc(OC(F)F)cc(C(C)C)c1NC(=O)N=S(N)(=O)c1sc(C(C)(C)O)cc1F (single isomer, unassigned) [Example 95]
5000 to 30000 | Cc1cc(C(C)(C)O)ccc1S(N)(=O)=NC(=O)Nc1c2c(cc3c1CCC3)CCC2 (single isomer, unassigned) [Example 100]
40 to 200 | CC(C)c1cc(OC(F)F)cc(C2CC2)c1NC(=O)N=S(N)(=O)c1cnc(C(C)(C)O)s1 (single isomer, unassigned) [Example 101]
5000 to 30000 | CC(C)c1cc(F)cc(C(C)C)c1NC(=O)N=S(N)(=O)c1cccc(C(C)(C)O)c1 (single isomer, unassigned) [Example 106]
5000 to 30000 | CC(C)c1c(F)c(C#N)cc(C2CC2)c1NC(=O)N=S(N)(=O)c1cnc(C(C)(C)O)s1 (single isomer, unassigned) [Example 107]
40 to 200 | CC(C)c1c(F)c(C#N)cc(C2CC2)c1NC(=O)N=S(N)(=O)c1cnc(C(C)(C)O)s1 (single isomer, unassigned) [Example 108]
40 to 200 | CC(C)c1cc(OC(F)F)cc(C(C)C)c1NC(=O)N=S(N)(=O)c1cnc(C(C)(C)O)s1 (single isomer, unassigned) [Example 111]
8 to 40 | CC(C)(O)c1csc(S(N)(=O)=NC(=O)Nc2c3c(c(C#N)c4c2CCC4)CCC3)c1 (single isomer, unassigned) [Example 113]
1000 to 5000 | CC(C)(O)c1csc(S(N)(=O)=NC(=O)Nc2c3c(c(C#N)c4c2CCC4)CCC3)c1 (single isomer, unassigned) [Example 114]
40 to 200 | CN(C)Cc1ccc(S(N)(=O)=NC(=O)Nc2c3c(cc4c2CCC4)CCC3)cc1 (single isomer, unassigned) [Example 117]
40 to 200 | Cc1oc(S(N)(=O)=NC(=O)Nc2c3c(cc4c2CCC4C)CCC3)cc1C(C)(C)O (single isomer, unassigned) [Example 123]
1000 to 5000 | Cc1oc(S(N)(=O)=NC(=O)Nc2c3c(cc4c2C(C)CC4)CCC3)cc1C(C)(C)O (single isomer, unassigned) [Example 126]
200 to 1000 | CC(C)(O)c1cccc(S(N)(=O)=NC(=O)Nc2c3c(c(F)c4c2CCC4)CCC3)c1 (single isomer, unassigned) [Example 128]
